Key:
MSC/N2a/HCEC = test: Intracellular release of NO, stated jointly for MSC/N2a/HCEC; format: cell-based
Procedure: (§1) Intracellular release of NO by DNIC–COOH was validated using the fluorescence probe 4-amino-5-methylamino-2′,7′-difluorofluorescein diacetate (DAF-FM) in combination with fluorescence analysis techniques. Briefly, the MSC cells (or N2a and HCEC cells) were seeded onto a 96-well black plate at a density of 6 × 10^3 cells/well (or 1 × 10^4 cells/well for N2a and 8 × 10^3 cells/well for HCEC cells) and incubated at 37 °C overnight. On the next day, the MSC cells were first treated with 10 μM of DAF-FM (or 5 μM for N2a and HCEC cells) and incubated at 37 °C for 0.5 h. […] Fluorescence intensity of the cells was then recorded using a microplate reader (SpectraMax iD3, Molecular Devices, San Jose, CA) with an excitation wavelength at 485 nm and an emission wavelength at 525 nm. Three independent experiments were executed to measure the time-dependent change of average fluorescence intensity. Time-dependent change of average fluorescence intensity for the MSC/N2a/HCEC cells with sequential treatment of DAF-FM (10 μM for MSC cells, 5 μM for N2a cells, 5 μM for HCEC cells; 0.5 h) and DNIC–COOMe (2.5 μM for MSC cells, 10 μM for N2a cells, 1 μM for HCEC cells) was determined in a similar manner.

HO-1 protein = test: ELISA of intracellular HO-1 protein in MSC; format: cell-based, human
Procedure: After the treatments of DNIC–COOH/DNIC–COOMe to the MSC cells following the procedure described above, the intracellular level of HO-1 protein in DNIC-treated MSC cells was also determined by ELISA (Abcam, Cambridge, MA) according to the manufacturers’ protocols.

[1] = Log D7.4 / Log P by n-octanol partitioning (UV–vis); format: physicochemical; conditions: for Log D7.4: PBS (pH 7.4)/n-octanol
Procedure: PBS (pH 7.4) and n-octanol were fully degassed before use. After adding 20 μL of 100 mM stock solution of DNIC–COOH in DMSO to 19.98 mL of PBS (pH 7.4), 2 mL of this 100 μM DNIC–COOH solution was added with 2 mL of n-octanol. This mixture solution was vortexed thoroughly for 30 s and incubated until the two solutions were separated. UV–vis spectra of DNIC–COOH in PBS (pH 7.4) and n-octanol were measured in order to determine Log D7.4 using the equation shown below:[96] [drawing 1] AO is the A362 in n-octanol, and APBS is the A362 in PBS (pH 7.4) after partitioning. Log D7.4 for DNIC–COOMe was determined in a similar manner. On the other hand, the Log P value for DNIC–COOH was measured based on its distribution in ddH2O and n-octanol using a similar procedure.[97],[98]

HCEC = test: Intracellular release of NO (DAF-FM fluorescence) in HCEC; format: cell-based, human; conditions: 75 μM DNIC–COOH or 1 μM DNIC–COOMe
Procedure: as §1, with “manner. […]” for “manner.”

N2a = test: Intracellular release of NO (DAF-FM fluorescence) in N2a; format: cell-based, mouse; conditions: 100 μM DNIC–COOH or 10 μM DNIC–COOMe
Procedure: as §1, with “manner. […]” for “manner.”

Row | Compound | tmax for intracellular release of free NO (MSC/N2a/HCEC) [h] | expression of HO-1 protein (HO-1 protein; at 8 h, 100 μM DNIC–COOH) [fold] | Log D7.4 [1] | Log P ([1]; ddH2O/n-octanol) | tmax for intracellular release of NO (HCEC) [h] | tmax for intracellular release of NO (N2a) [h] | expression of HO-1 protein (HO-1 protein; at 6 h, 2.5 μM DNIC–COOMe) [fold]
1 | O=[N][Fe]1([N]=O)[SH](CCC(=O)O)[Fe]([N]=O)([N]=O)[SH]1CCC(=O)O (centres unmarked) [DNIC–COOH, [(NO)2Fe(μ-SCH2CH2COOH)2Fe(NO)2]] | 4 to 6 | 32.0 ± 4.4 | −2.3 | 1.2 | 6 | 4 | –
2 | COC(=O)CC[SH]1[Fe]([N]=O)([N]=O)[SH](CCC(=O)OC)[Fe]1([N]=O)[N]=O (centres unmarked) [DNIC–COOMe, [(NO)2Fe(μ-SCH2CH2COOCH3)2Fe(NO)2]] | 1 to 2 | – | 1.0 | – | 1 | 2 | 8.1 ± 0.9
